Test results as given in US20170105981A1, “METHODS FOR STABILIZING HYPOXIA INDUCIBLE FACTOR-2 ALPHA AS A METHOD FOR TREATING CANCER” (The Ohio State Innovation Foundation, priority 2011, published 2017).

Experiments:
VEGF mRNA [1] = assay: VEGF mRNA expression (qPCR) in wild type murine embryonic fibroblasts; format: cell-based; settings: hypoxic conditions (1% O2), 1, 10 and 100 μM, vs. hypoxia control, FIG. 1A
Procedure: (§1) Total RNA was isolated from tissues and cells by using TRIzol™ Reagent (Invitrogen) and the RNeasy kit (Qiagen), respectively. 1 μg RNA was used for reverse transcription using SuperScript II First-Strand Synthersis System (Invitrogen). cDNA's were amplified in a SYR Green or TaqMan Universal Master Mix (Applied Biosystems). Quantitative PCR (qPCR) was performed on ABI Prism 7700 sequence detection system. PCR conditions are: 10 min at 95° C., 40 cycles of 15 seconds at 95° C. and 1 minute at 60° C. The relative amount of mRNA was calculated after normalization to β-actin.
(§2) Cells were cultured in DMEM (#11965-092, Invitrogen) supplemented with 10% fetal bovine serum (Invitrogen), 100 U/mL penicillin and […] streptomycin. For glucose deprivation, DMEM without glucose (#11966-025, Invitrogen) was used.
(§3) Mouse embryonic fibroblasts (MEFs) were isolated from E12.5 embryos and immortalized by stable transfection with SV40 large T antigen.

sVEGFR-1 [2] = assay: sVEGFR-1 transcription in bone marrow-derived macrophages (LysMcre control vs HIF-2αflox/flox/LysMcre); format: cell-based, mice; settings: p=0.036, FIG. 11F
From the text: HIF-2α^flox/flox mice (originally developed by Dr. Celeste Simon, University of Pennsylvania) and LysMcre recombinase mice (originally developed by Irmgard Foerster, University of Duesseldorf) (both purchased from The Jackson Laboratory, Bar Harbor, Me.) were crossed to generate mice homozygous for both LysMcre and the floxed HIF-2α allele. LysMcre recombinase mice, which express no floxed alleles, were used as controls. Deletion of HIF-2α in HIF-2α^flox/flox/LysMcre macrophages, but not the LysMcre control macrophages, was confirmed at the transcript level by real-time PCR.
To generate bone marrow-derived macrophages (BDMs), femoral bone marrow was isolated and progenitor cells were plated in RPMI-1640 supplemented with 10% FBS, 1% PSA, 10 μg/mL of polymyxin B, and 20 ng/mL of recombinant murine M-CSF. Cells were cultured for 5 days with the addition of fresh M-CSF every other day. […]
Human monocytes were left untreated or were stimulated with 100 ng/mL GM-CSF at normoxia or at 0.5% O2. […] Data were analyzed according to the comparative threshold method and normalized against the β-actin internal control transcript. Results are semi-quantitative and represent the fold difference in transcript levels in a particular sample as compared with levels in untreated cells from the same donor. […]

VEGF mRNA [3] = assay: VEGF mRNA expression (qPCR) in HIF-1α−/− fibroblasts; format: cell-based, murine; settings: hypoxic conditions (1% O2), 1, 10 and 100 μM, vs. hypoxia control, FIG. 1B
Procedure: as §1, §2, §3

sVEGFR-1 [4] = assay: sVEGFR-1 production by human peripheral blood monocytes (ELISA, real-time PCR); format: cell-based; settings: monocytes with 100 ng/mL GM-CSF plus 10 μM compound vs GM-CSF alone, FIG. 11B
Procedure: Human peripheral blood mononuclear cells (PBMCs) were isolated from fresh peripheral blood leukocyte source packs (American Red Cross, Columbus Ohio) by density gradient centrifugation over Lymphocyte Separation Medium (Cellgro). Monocytes were purified from total PBMCs by layering over FBS. Monocytes were cultured in endotoxin-free RPMI-1640 supplemented with 1% fetal bovine serum (FBS), 0.1% human serum albumin (HSA), and 10 μg/mL of the endotoxin inhibitor polymyxin B. In some experiments, freshly isolated monocytes were differentiated into macrophages by three-day culture in media containing 10% FBS, 1% PSA (penicillin G sodium, streptomycin sulfate, and amphotericin B), and 20 ng/mL M-CSF. Macrophages were serum-starved for 2 hours prior to stimulation. Monocytes or monocyte-derived macrophages were treated for 24 hours with 10 ng/mL GM-CSF, 10 μM disclosed HIF-2α stabilizer, or an equivalent volume of the vehicle controls (PBS or DMSO, respectively). Cell-free culture supematants were harvested and analyzed for VEGF or sVEGFR-1 by ELISA (R&D Systems).
Human monocytes were left untreated or were stimulated with 100 ng/mL GM-CSF at normoxia or at 0.5% O2. At various time-points, cells were harvested in Trizol reagent (Invitrogen) and RNA was extracted in chloroform and then purified using the RNeasy Minikit (Qiagen). In murine studies, organs harvested at the time of euthanasia were flash-frozen in liquid nitrogen, pulverized in liquid nitrogen, and then dissolved in Trizol. cDNA was generated from 1 μg of RNA using the Superscript First Strand Synthesis System (Invitrogen) and used for real-time PCR using previously described primers and SYBR Green PCR Master Mix (Applied Biosciences), according to the manufacturer's instructions. Data were analyzed according to the comparative threshold method and normalized against the β-actin internal control transcript. Results are semi-quantitative and represent the fold difference in transcript levels in a particular sample as compared with levels in untreated cells from the same donor.

O=C(O)CNC(=O)c1ncc(-c2cccc(F)c2)cc1O [disclosed HIF-2α stabilizer, {[5-(3-Fluorophenyl)-3-hydroxypyridine-2-carbonyl]amino} acetic acid]
VEGF mRNA (relative amount) (VEGF mRNA [1]): dramatic reduction
sVEGFR-1 transcription (sVEGFR-1 [2]): induced
VEGF mRNA (relative amount) (VEGF mRNA [3]): dramatic reduction
sVEGFR-1 production, protein level (sVEGFR-1 [4]; p=0.007): increased significantly
sVEGFR-1 production, transcript level (sVEGFR-1 [4]; p=0.033): increased significantly
